In this assay the test system is M. tuberculosis H37Rv growth inhibition. The experiment in a line: M. tuberculosis H37Rv growth inhibitors, H37Rv strain (AID 1626). As to conditions: for IC90: measured here: IC90 against H37Rv; for CC50: measured here: Vero cell cytotoxicity.

46 compounds from PubChem BioAssay AID1626 (SRMLSC, 2009) can be followed below.

Take `Cc1ccc(Nc2c(-c3ccccn3)nc3cccc(C)n23)cc1`: the IC50 is 2.72 µM, the IC90 worked out at 3.06 µM and the CC50 is 1.18 µM.

Take `Nc1ccccc1Nc1ccccc1`: the concentration for half-maximal inhibition (IC50) is below 0.195 µM and the IC90 was determined as 0.973 µM.

On to `COc1cc(CC(=O)Nc2ccc3nc(SC)sc3c2)cc(OC)c1OC`, for which the IC50 is 11.3 µM and the 90% effect concentration (IC90) came out at 16.1 µM.

Consider `CCCCCCCOc1ccc(OC(=O)c2cccnc2)cc1`, for which the IC50 was 6.32 µM, the IC90 was above 100 µM and the CC50 amounted to 15.4 µM.

For the compound `COC(=O)CSc1ccc(C#N)c(SCC(=O)OC)c1`, the IC50 was 3.27 µM and the 90% effect concentration (IC90) was 10.4 µM.

With `CCOc1ccc2nc(NC(=O)CSc3nc(SC)ns3)sc2c1`, the IC50 is 2.95 µM, the IC90 is above 100 µM and the CC50 was above 40 µM.

As for `NC(=O)c1ccc(NC(=O)COC(=O)c2c3c(nc4ccccc24)/C(=C\c2cccs2)CCC3)cc1`, the concentration for half-maximal inhibition (IC50) was 0.572 µM, the IC90 came out at 9.77 µM and the half-maximal cytotoxic concentration (CC50) was 7.95 µM.

`Cn1cc(C(=O)CCl)c2ccccc21`: the IC50 was 1.6 µM, the concentration for an effect of 90% (IC90) was 4.01 µM and the 50% cytotoxic concentration (CC50) stood at 10.9 µM.

With `CCOC(=O)CSc1nnc(-c2cccc(Br)c2)o1`, the IC50 is 0.486 µM and the concentration for an effect of 90% (IC90) amounted to 15.2 µM.

Consider `COc1ccc(C(=O)C(CN2CCOCC2)c2ccccc2)cc1F` (configuration not stated), for which the half-inhibitory concentration (IC50) was 11.5 µM, the IC90 is 12.5 µM and the CC50 was 16.1 µM.

As for `CCCCOC(=O)c1ccc(NC(=O)C(=O)NCCN(CC)CC)cc1`, the IC50 is 35.7 µM and the IC90 was above 100 µM.

Regarding `O=C(Nc1cc(Oc2ccccc2)cc([N+](=O)[O-])c1)C12CC3CC(C1)CC(n1cnc(Cl)n1)(C3)C2`, the half-inhibitory concentration (IC50) is 4.19 µM, the IC90 is above 100 µM and the CC50 is above 40 µM.

On to `CCOC(=O)c1ccc(NC(=O)N2CCN(Cc3ccccc3)CC2)cc1`, for which the 90% effect concentration (IC90) is above 100 µM.

On to `CN(C)CCNC=C(C(=O)Nc1ccc(Cl)cc1Cl)C(=O)Nc1ccc(Cl)cc1Cl`, for which the IC50 is 2.45 µM, the IC90 was 3.44 µM and the 50% cytotoxic concentration (CC50) is 18.1 µM.

As to `Cc1ccc(-c2noc(-c3cc4ccccc4oc3=O)n2)cc1`, the IC50 is 1.5 µM and the 90% effect concentration (IC90) is above 100 µM.

`CCCOC(=O)c1ccc(NC(=O)/C=C/c2cccs2)cc1`: the IC50 is 4.12 µM and the IC90 amounted to 21.8 µM.

With `Cc1ccccc1-n1ncc2c([N+](=O)[O-])cc([N+](=O)[O-])cc21`, the concentration for half-maximal inhibition (IC50) was 2.97 µM, the 90% effect concentration (IC90) amounted to 4.48 µM and the half-maximal cytotoxic concentration (CC50) was above 40 µM.

With `CN(C)CCCn1c(=O)n(CCc2ccccc2)c(=O)c2c3c(sc21)CCCCC3`, the IC50 was 11.6 µM, the IC90 was determined as 12.9 µM and the CC50 turned out to be 18.1 µM.

With `COc1ccc(O)c(C(=O)CC(=O)c2ccccc2C)c1`, the concentration for half-maximal inhibition (IC50) is 17.2 µM, the IC90 is above 100 µM and the CC50 was determined as 17.1 µM.

Compound `CCOC(=O)c1ccc(N=C(C)c2c(O)[nH]c(=O)[nH]c2=O)cc1` gave a 90% effect concentration (IC90) above 100 µM.

Take `CC1CCN(c2nc(/C=C/c3ccccc3)nc3ccccc23)CC1`: the half-maximal inhibitory concentration (IC50) is 10.1 µM, the concentration for an effect of 90% (IC90) was 12.8 µM and the cytotoxic concentration (CC50) is above 40 µM.

Take `Cc1cc(NC(=O)c2cc(-c3ccncc3)nc3c(C)cccc23)no1`: the IC50 is 48.1 µM, the concentration for an effect of 90% (IC90) was 74.3 µM and the CC50 was 12.9 µM.

In the case of `COc1ccccc1N1CCN(Cc2nc(N)nc(Nc3ccc(C)c(Cl)c3)n2)CC1`, the concentration for half-maximal inhibition (IC50) is 8.35 µM, the concentration for an effect of 90% (IC90) was 18.7 µM and the cytotoxic concentration (CC50) was above 40 µM.

As for `O=C(CCl)N(c1ccccc1)c1c[nH]c2ccccc12`, the IC50 was 3.84 µM, the IC90 stood at 8.14 µM and the CC50 was determined as 0.995 µM.

Take `Cn1nc(-c2ccc(Cl)cc2)c2cc(C(=O)N3CCN(c4ccccn4)CC3)sc21`: the IC50 is 2.49 µM, the IC90 came out at 4.36 µM and the CC50 was above 40 µM.

Turning to `Cn1nnnc1SCC(=O)Nc1nc(-c2ccccc2)c(-c2ccccc2)o1`, the 50% inhibitory concentration (IC50) was 35.6 µM, the 90% effect concentration (IC90) was above 100 µM and the CC50 was above 40 µM.

With `CCOCCOC(=O)COc1ccc2c(-c3ccccc3)cc(=O)oc2c1`, the 50% inhibitory concentration (IC50) is 1.28 µM and the IC90 came out at 4.32 µM.

Regarding `COc1ccc(NC(C)c2cc(Cl)ccc2O)cc1` (configuration not stated), the IC90 is above 100 µM.

On to `OC(CN1CCN(Cc2ccccc2)CC1)Cn1c2ccccc2c2ccccc21` (configuration not stated), for which the IC50 is 16.5 µM, the concentration for an effect of 90% (IC90) is 22.9 µM and the CC50 is above 40 µM.

Regarding `O=C(C1CCN(c2nnc(-n3cccc3)s2)CC1)N1CCc2ccccc2C1`, the half-inhibitory concentration (IC50) was 0.701 µM and the 90% effect concentration (IC90) stood at 0.937 µM.

On to `COc1ccc(N=C2CCS(=O)(=O)c3sccc32)cc1`, for which the IC50 is 54.3 µM and the IC90 is above 100 µM.

In the case of `CCn1cc(C(=O)NCc2cccc(F)c2)c(=O)c2cc(F)c(N3CCN(C(=O)c4ccco4)CC3)cc21`, the IC50 is 2.69 µM, the concentration for an effect of 90% (IC90) amounted to 6.52 µM and the CC50 amounted to 27 µM.

Consider `Cn1cnc([N+](=O)[O-])c1S(=O)(=O)c1ccc(Cl)cc1`, for which the concentration for half-maximal inhibition (IC50) is 8.35 µM, the IC90 is 10.7 µM and the cytotoxic concentration (CC50) is 23.4 µM.

On to `CC(C)OC(=O)c1ccc(NC(=O)c2cncc(Br)c2)cc1`, for which the IC90 is above 100 µM.

In the case of `C#CCOCCOCCOCCNc1nc(N2CCN(C(=O)[C@H](Cc3cc4ccccc4[nH]3)n3cc([C@@H](N)CC(C)C)nn3)CC2)nc(N2CCN(C(=O)[C@H](Cc3cc4ccccc4[nH]3)n3cc([C@@H](N)CC(C)C)nn3)CC2)n1`, the IC50 is 4.23 µM and the IC90 was 7.58 µM.

Take `COc1ccc(NCC(=O)Nc2ccc(Cl)cc2C)c(OC)c1`: the 50% inhibitory concentration (IC50) was 27.4 µM and the concentration for an effect of 90% (IC90) was above 100 µM.

Take `O=C(OCC#CCSc1nc2ccccc2o1)c1ccco1`: the IC50 was 4.27 µM and the 90% effect concentration (IC90) turned out to be 12.4 µM.

As to `Cc1cc(N2CCCCC2)nc2ccc(NC(=O)c3ccc(Br)o3)cc12`, the half-maximal inhibitory concentration (IC50) was 1.69 µM, the 90% effect concentration (IC90) was found to be 3.38 µM and the CC50 was above 40 µM.

Turning to `Cc1ccc(-n2c(C)cc(C3N=C(N)Nc4nc5ccccc5n43)c2C)c(C)c1` (configuration not stated), the 50% inhibitory concentration (IC50) was 8.26 µM, the concentration for an effect of 90% (IC90) was 10.8 µM and the CC50 was above 40 µM.

For the compound `O=C(Nc1nnc(-c2ccc3c(c2)OCCO3)o1)c1ccc(Cc2ccccc2)cc1`, the concentration for half-maximal inhibition (IC50) was 1.7 µM, the IC90 is above 100 µM and the CC50 worked out at 38.1 µM.

In the case of `CC(=O)Oc1c(-c2ccco2)oc2ccccc2c1=O`, the IC50 was 51.4 µM and the IC90 is above 100 µM.

In the case of `FC(F)(F)c1ccc(N2CCOCC2)c(Nc2nc3ccccc3n3cnnc23)c1`, the IC50 is 8.57 µM, the concentration for an effect of 90% (IC90) is 18.3 µM and the CC50 turned out to be 24.5 µM.

As to `COC(=O)[C@H](NC(=O)c1cc(-c2ccccc2)nc2ccccc12)c1ccccc1`, the concentration for half-maximal inhibition (IC50) is 1.69 µM and the IC90 came to 3.37 µM.

`COc1cccc(CNc2ccccc2O)c1OCc1ccccc1F`: the concentration for an effect of 90% (IC90) was above 100 µM and the cytotoxic concentration (CC50) was above 40 µM.

Regarding `Cc1cc(=O)oc2cc(Oc3ccc([N+](=O)[O-])cc3C(F)(F)F)ccc12`, the IC50 was 12.2 µM and the IC90 was above 100 µM.

In the case of `COc1cccc(C2C(C(=O)Nc3nc4ccccc4s3)=C(C)NC3=C2C(=O)CC(C)(C)C3)c1OC` (configuration not stated), the IC90 was above 100 µM and the CC50 is above 40 µM.
